{
  "source": "patent US20040230033A1",
  "about": "“Substrate-derived affinity labels, and uses thereof” (priority 2003, published 2004)",
  "key": {"[1]": {"biological_target": "recombinant sortase SrtAΔN (His6-tagged) (Staphylococcus aureus (Oxford strain)) (UniProt Q2FV99)"}, "SrtAΔN [2]": {"biological_target": "T1, SrtAΔN (Staphylococcus aureus, UniProt Q2FV99)", "T1 construct": "The region of the SrtA gene lacking the N-terminal membrane domain was then PCR-amplified; made in house; host or cells: E. coli HMS174(DE3)pLysS", "assay": "Affinity labelling of recombinant SrtAΔN, Western blot with streptavidin-alkaline phosphatase", "format": "binding, S. aureus", "protocol": "(§1) To detect the affinity-labelled recombinant and wild-type SrtA, samples were analysed by Western-blot analysis [19,24-26]. Briefly, samples were treated with denaturing treatment buffer and the proteins separated by SDS/PAGE on 4-20% (w/v) linear gradient gels, followed by semi-dry transfer to a nitrocellulose membrane (Schleicher and Schiill, Dassel, Germany). After transfer, non-specific binding sites were quenched with a 3% (w/v) solution of BSA in 20 mM Tris/HCI (pH 7.4), containing 150 mM NaCl. To detect the biotin group, the membrane was incubated with a streptavidin-alkaline phosphatase conjugate (1:500). […] Bound antibody was detected with a goat anti-rabbit IgG alkaline phosphatase conjugate (1:20000).\nIn lane 3, the bound fraction eluted from the column with 10 mM imidazole (purified SrtAΔN) was also analysed."}, "SrtB": {"biological_target": "SrtB (Staphylococcus aureus, UniProt Q2FZE3)", "format": "binding", "details": "crude S. aureus extracts, iron not added to culture media", "protocol": "as §1"}, "wild-type SrtA": {"biological_target": "T2, wild-type SrtA (Staphylococcus aureus, UniProt Q2FV99)", "T2 construct": "endogenous in cells; host or cells: S. aureus Oxford strain (ATCC 9144)", "assay": "Affinity labelling of wild-type SrtA in crude S. aureus cell lysates, Western blot", "format": "binding", "details": "lysate probed with III; additional 24 kDa band, confirmed with antiserum", "description": "For the disclosure of wild-type SrtA in S. aureus, a 50 ml overnight culture of the organism in LB broth was prepared. The bacterial cells were centrifuged at 3000 g for 15 min and the resulting pellet was washed in 5 ml of SrtA buffer. The washed bacteria were then resuspended in 1 ml of SrtA buffer containing 0.1 g of glass beads. The suspension was vortex-mixed continuously for 5 min followed by centrifugation at 1500 g for 15 min to remove the beads and unbroken cells. To 100 pl of purified SrtAΔN and the crude bacterial preparations, the inhibitor biotin-Ahx-Leu-Pro-Ala-Thr-CHN2 (III) was added (final concentration 50 pM) before incubation at 37° C. for 30 min.\nTo detect the affinity-labelled recombinant and wild-type SrtA, samples were analysed by Western-blot analysis. […] Bound antibody was detected with a goat anti-rabbit IgG alkaline phosphatase conjugate (1:20000).\nWestern-blotting experiments were performed with biotinAhx-Leu-Pro-Ala-Thr-CHN2 (III) to detect the presence of wildtype SrtA in crude cell lysates from S. aureus (Oxford strain; see FIG. 8B). […] In the duplicate lanes 3 and 4, which contained cell lysate “probed” with biotin-Ahx-Leu-Pro-Ala-Thr-CHN2 (III), the BCCP protein was detected along with an additional protein of apparent molecular mass 24 kDa. […]"}, "SrtAΔN [3]": {"biological_target": "T1, SrtAΔN", "assay": "biochemical", "format": "biochemical, S. aureus", "details": "for k1 (first-order rate constant ki for covalent modification of SrtAΔN) / ki/Ki (specificity constant): 37° C., means ± S.E.M., four determinations; for k1 (first-order rate constant ki for covalent modification of SrtAΔN): pH 7.5, inhibitor 25-200 μM; for ki/Ki (specificity constant): pH 7.5", "description": "Using methods described previously, SrtAΔN activity was measured with the internally quenched substrate 4([4-(dimethylamino)phenyl]azo)-benzoyl(Dabcyl)-[…][(2-aminoethyl)-amino]napthalenel-sulphonyl (Edans) (prepared by standard Fmoc solid-phase synthesis) on a CytoFluor 4000® multi-well fluorimeter (PerSeptive Biosystems, Foster City, Calif., U.S.A.). All SrtAAN assays were performed at 37° C. (in triplicate) in 50 mM Tris/HCI (pH 7.5) containing 150 mM NaCl, 5 mM CaCl2, 5 mM NH,-Gly3 and 5 mM dithiothreitol (SrtA buffer). Wells contained approx. 10 pM of purified SrtAoN and 50 pM of substrate, in a final volume of 200, ul. The Km and kcat values for the SrtAΔN-catalysed cleavage of the internally quenched sub-strate were calculated by fitting the data points directly into the Michaelis-Menten equation for substrate hydrolysis, using GraFit® software (Erithacus Software, Horley, Surrey, U.K.).\nData from the curves were fitted, using non-linear regression analysis, to the integrated rate equation [P]=PJ1-e “-Pp”). This equation represents a first-order rate process for the formation of product P as a function of time, where kapp is the apparent rate constant and P. represents the concentration of product at a time approaching infinity. Using five different concentrations for each inhibitor (25, 50, 100, 150 and 200/μM), the values kapp and P∞were determined and utilized to evaluate the apparent second-order rate constant A for the inactivation of SrtAΔN in the presence of the substrate. The individual kinetic constants ki and Ki were then evaluated for both inhibitors from a plot of 1/A versus inhibitor concentration [I] [28], and the specificity constant k;/K; was calculated.\nData from the progress curves for SrtΔN-catalysed hydrolysis of the internally quenched substrate Dabcyl-[…]Edans in the presence of five different concentrations of inhibitors I and II (25, 50, 100, 150 and 200, W) were fitted by non-linear regression analysis to the integrated rate equation [P]=P∞(1-e^−kaPPt). The P∞. and kapp values were determined and used to evaluate the apparent second-order rate constant A for inactivation of SrtΔN in the presence of substrate. The individual kinetic constants k and K were then evaluated from a plot of 1/A versus inhibitor concentration [I], and the specificity constant for each inhibitor (kiKi) calculated. Values represent the means ±S.E.M. for four determinations."}, "cathepsin B [4]": {"biological_target": "T3, cathepsin B (Homo sapiens, UniProt P07858)", "details": "cathepsin B/Cbz-Phe-Phe-CH2Cl versus SrtAΔN/II"}, "cathepsin B [5]": {"biological_target": "T3, cathepsin B", "details": "reference [30]; cited from earlier work"}},
  "note": "Where “and” joins values, the source holds several entries; their conditions need not be identical. Identical values can stand only once. Where a SMILES comes first, the peptide text is derived from it. The star is where a group is joined. Biotin = O=C1N[C@H]2[C@H](CS[C@H]2CCCCC(=O)*)N1; Cbz = O=C(OCc1ccccc1)*; CHN2 = [N-]=[N+]=C*; Ahx = NCCCCCC(=O)O; CH2Cl = ClC*",
  "data": [
    {"compound": "Cbz-Leu-Pro-Ala-Thr-CHN2 (I), peptidyl-diazomethane inhibitor (peptide)", "values": [
      {"measurement": "ki (first-order rate constant of inactivation)", "setting": "[1]", "result": 0.0058, "unit": "min⁻¹"},
      {"measurement": "ki/Ki (specificity constant)", "setting": "[1]", "result": 367, "unit": "M⁻¹ s⁻¹"}
    ]},
    {"compound": "{Biotin-Ahx}-LPAT-CHN2 [Inhibitor III]", "values": [
      {"measurement": "nature of binding of biotinylated inhibitor to SrtAΔN", "setting": "SrtAΔN [2]; 50 μM, 37° C., 30 min, approx. 30 kDa band labelled in crude E. coli lysate and purified fraction", "result": "active-site-directed"},
      {"measurement": "selectivity of labelling, SrtA versus SrtB", "setting": "SrtB", "result": "selectively disclosed wild-type SrtA, but not SrtB"},
      {"measurement": "detection of wild-type SrtA in crude S. aureus lysate", "setting": "wild-type SrtA", "result": "affinity-labelled SrtA"}
    ]},
    {"compound": "Cbz-Leu-Pro-Ala-Thr-CH2Cl (II), peptidyl-chloromethane inhibitor (peptide)", "values": [
      {"measurement": "ki (first-order rate constant of inactivation)", "setting": "[1]", "result": 0.011, "unit": "min⁻¹"},
      {"measurement": "ki/Ki (specificity constant)", "setting": "[1]", "result": 883, "unit": "M⁻¹ s⁻¹"}
    ]},
    {"compound": "O=C(O)c1cc[c]([Hg][OH])cc1", "note": "[pHMB, reference compound]", "values": [
      {"measurement": "effect of pre-treatment on SrtAΔN labelling by III", "setting": "SrtAΔN [2]; purified SrtAΔN pre-treated with thiol-directed inhibitor before probing with III", "result": "complete diminution of SrtAΔN labelling"}
    ]},
    {"compound": "CC(C)C[C@H](NC(=O)OCc1ccccc1)C(=O)N1CCC[C@H]1C(=O)N[C@@H](C)C(=O)N[C@H](C(=O)CCl)[C@@H](C)O", "note": "[Inhibitor II, Cbz-Leu-Pro-Ala-Thr-CH2Cl] (Cbz-LPAT-CH2Cl)", "values": [
      {"measurement": "Ki", "setting": "SrtAΔN [3]", "result": 210, "unit": "nM"},
      {"measurement": "k1 (first-order rate constant ki for covalent modification of SrtAΔN)", "setting": "SrtAΔN [3]", "result": "1.1×10^−2 min^−1 and 1.1 ± 0.1 × 10^−2 min^−1"},
      {"measurement": "ki/Ki (specificity constant)", "setting": "SrtAΔN [3]", "result": "5.3×10^4 M^−1 − min^−1 and 5.3 ± 0.6 × 10^4 M^−1 − min^−1"},
      {"measurement": "covalently modifies SrtAΔN more rapidly than peptidyl-diazomethane I (by ki)", "setting": "SrtAΔN [3]; II versus I", "result": "approx. 2 fold"},
      {"measurement": "inactivates SrtAΔN more rapidly than analogous diazomethane sequence I (by specificity constants)", "setting": "SrtAΔN [3]; II versus I", "result": "approx. 2 fold"}
    ]},
    {"compound": "CC(C)C[C@H](NC(=O)OCc1ccccc1)C(=O)N1CCC[C@H]1C(=O)N[C@@H](C)C(=O)N[C@H](C(=O)C=[N+]=[N-])[C@@H](C)O", "note": "[Inhibitor I, Cbz-Leu-Pro-Ala-Thr-CHN2] (Cbz-LPAT-CHN2)", "values": [
      {"measurement": "Ki", "setting": "SrtAΔN [3]", "result": 220, "unit": "nM"},
      {"measurement": "k1 (first-order rate constant ki for covalent modification of SrtAΔN)", "setting": "SrtAΔN [3]", "result": "5.8×10^−3 min^−1 and 5.8 ± 0.6 × 10^−3 min^−1"},
      {"measurement": "ki/Ki (specificity constant)", "setting": "SrtAΔN [3]", "result": "2.2×10^4 M^−1 − min^−1 and 2.2 ± 0.2 × 10^4 M^−1 − min^−1"}
    ]},
    {"compound": "Cbz-Phe-Phe-CH,Cl", "values": [
      {"measurement": "ki greater than irreversible modification of SrtAΔN by peptidyl-chloromethane II", "setting": "cathepsin B [4]", "result": "approx. 1000 fold"},
      {"measurement": "ki for alkylation of the active-site cysteine residue of cathepsin B", "setting": "cathepsin B [5]", "result": 12.5, "unit": "min⁻¹"}
    ]}
  ]
}
